The values below come from US6693126B2, “Dihydroxyphenyl derivatives for hepatoprotection and treatment of liver diseases” (Choongwae Pharm. Co., Ltd., priority 2000, dated 2004).

Assay [1] has as its system Liver Injuries caused by Carbon Tetrachloride in Rats. Put plainly: Inhibitory effect against liver injuries caused by carbon tetrachloride in rats. In kind it is in vivo, Rats (SD, male). The following applies: CCl4 i.p., serum 24 h. The source says:
(§1) The carbon tetrachloride model(see, Philippe letteron et al., Biochemical Pharmacology, 39, 12, 2027-2034, 1990; Tips, 10, 1989; Kyoichi Kagawa et al., Japan J. Pharmacol., 42, 19-26, 1986; K. T. Liu and P. Lesca, Chem. Biol. Interactions, 41, 39-47, 1982; Richard O. et al., J. Biological Chemistry, 236, 2, 1961) is used most generally. This model has been established based on the internal phenomena that carbon tetrachloride is converted by cytochrome P-450 to a toxic free radical trichloromethyl(CCl3.), this radical is strongly bound to a thiol group of membrane protein on microsome of liver to form a lipid radical, which is then converted to a peroxy radical in the presence of oxygen to facilitate the peroxidation reaction of membrane lipid. That is, carbon tetrachloride suppresses protein biosynthesis in the liver, induces the increase of ALT and AST values in blood, and further causes histologically the centrilobular necrosis of the liver.
(§2) The degree of liver damage in the experimental animals was determined by measuring ALT and AST values in blood(see, Biol. Pharm. Bull., 20, 4, 381-385, 1997; Toxicology and Applied Pharmacology, 95, 1-11, 1988), and the hepatoprotective activity was calculated based on the following formula(see, Planta Medica, 55, 127-132, 1989). At this time, the hepatoprotective activity can also be calculated based on the same formula by replacing ALT value with AST value. [formula]
(§3) The hepatoprotective effect of the compound of the present invention was identified according to a known procedure(see, Philippe letteron et al., Biochemical Pharmacology, 39, 12, 2027-2034, 1990), and the protocol may be described in brief as follows.
(§4) Rats(SD, male, 180˜200 g) and mice(ICR, male, 27-35 g) used in the test were allowed in a condition of temperature 22±1° C. and relative humidity 60±5%. Feed and water were provided with no restriction while light and darkness were changed at an interval of 12 hours.
(§5) […] […] Each group included 8 test animals, and the test compound was orally administered once per animal. After 30 minutes(rat) or 1 hour(mouse) from the administration of the test compound, 10% carbon tetrachloride in corn oil solution was intraperitoneally injected in doses of 2 ml/kg in rats and 0.15 ml/kg in mice. As the control compounds, silymarin and DDB were selected.
(§6) The test animals were provided with no feed and sufficient water for 24 hours from the administration of carbon tetrachloride. […] This blood was centrifuged to obtain sera. ALT and AST values in the sera were measured using blood chemistry analyzer(Vitalab, Selectra II, Merck). The statistical significance for the test result of each group was examined based on Student's t-test, and the result was recognized as having a statistical significance when its P value is less than 5%.

Assay [2] deals with Liver Injuries caused by Carbon Tetrachloride in Mice. Nature of the assay: Inhibitory effect against liver injuries caused by carbon tetrachloride in mice. The following applies: CCl4 i.p., serum 24 h. In kind it is in vivo, mice (ICR, male).
Description: as §1, §2, §3, §4, §5, §6

Assay [3] has as its system Liver Injuries caused by Thioacetamide in Mice. Nature of the assay: Inhibitory effect against liver injuries caused by thioacetamide in mice. Format: in vivo, Mice (ICR, male). To be noted: thioacetamide i.p., serum 24 h.
Description: The hepatoprotective effect of the compound of formula (1) was also identified by thioacetamide model(see, Masuda Yasusuke and Nakayama Nobue, Biochemical Pharmacology, 31, 17, 2713-2725, 1982; Liu Jie et al., Acta Pharmacologica Sinica, 16, 2, 97-102, 1995; Story D. L. et al., J. Tox. Environ. Health, 11, 483-501, 1983; Gomez-Lechon M. J. et al., Xenobiotica, 18, 6, 725-735, 1988) which is frequently used as an experimental model for liver injuries. This model has been established based on the phenomena that thioacetamide activated by P-450 S-oxidation inordinately increases the influx of calcium ion(Ca^++) into the liver cells, which in turn activates calcium ion-dependent phospholipase, protease and endonuclease, changes the cell frame through the calcium ion, exhausts ATP, and consequently destroys the liver cells. Thioacetamide also damages ureogenesis pathway in liver, and the metabolite of thioacetamide inhibits the transfer of RNA and makes the liver cell membranes unstable. A series of these activities results in the destruction of the liver cells, which in turn causes the increase of ALT and AST values in blood and also causes histologically the centrilobular necrosis.
as §2
The hepatoprotective effect of the compound of the present invention was identified according to a known procedure(see, Landon, E. J. et al., Biochemical Pharmacology, 35, 4, 697-705, 1986), and the protocol may be described in brief as follows.
Mice(ICR, male, 27˜35 g) as the test animal were allowed in a condition of temperature 22±1° C. and relative humidity 60±5%. Feed and water were provided with no restriction while light and darkness were changed at an interval of 12 hours.
The compound of the present invention was suspended in a solvent corn oil, and this suspension was administered in a dose of 10 ml/kg. Each group included 8 test animals, and the test compound was orally administered once per animal. After 1 hour from the administration of the test compound, thioacetamide solution(concentration: 90 mg/ml) in physiological saline was intraperitoneally injected in a dose of 1 ml/kg. As the control compounds, silymarin and DDB were selected.
The test animals were provided with no feed and sufficient water for 24 hours from the administration of thioacetamide. […] This blood was centrifuged to obtain sera. ALT and AST values in the sera were measured using blood chemistry analyzer(Vitalab, Selectra II, Merck). The statistical significance for the test result of each group was examined based on Student's t-test, and the result was recognized as having a statistical significance when its P value is less than 5%.

`COc1cc(/C=N/OCc2ccccn2)cc2c1OCO2` [Compound 13, 6-(2-((2-pyridyl)methoxy)-2-azavinyl)-4-methoxybenzo [d]1,3-dioxolane]: the “Inhibitory Effect against Liver Injuries (%) ALT” value (“Inhibitory Effect … (%) ALT” below) in assay [1] (dose 1.9 mg/kg p.o. once) was 53%; in assay [1] (dose 5.6 mg/kg p.o. once), 49%; in assay [1] (dose 16.7 mg/kg p.o. once) it was 59%; in assay [1] (dose 50 mg/kg p.o. once) it was 67%; in assay [2] (dose 1.9 mg/kg p.o. once), 35%; in assay [2] (dose 5.6 mg/kg p.o. once), 43%. The entries for the “Inhibitory Effect … (%) ALT” value in assay [2] (dose 16.7 mg/kg p.o. once), in assay [2] (dose 50 mg/kg p.o. once) and in assay [3] (dose 50 mg/kg p.o. once) were 69%, 100% and 91%, respectively.

In the case of `c1csc(-c2ccc3c(c2)OCO3)n1` [Compound 21, 2-(benzo[3,4-d]1,3-dioxolan-5-yl)-1,3-thiazole], the “Inhibitory Effect … (%) ALT” value in assay [1] (dose 16.7 mg/kg p.o. once) is 63%; in assay [1] (dose 50 mg/kg p.o. once), 67%; in assay [2] (dose 16.7 mg/kg p.o. once), 99%; in assay [2] (dose 50 mg/kg p.o. once), 100%; in assay [3] (dose 16.7 mg/kg p.o. once), 54%; in assay [3] (dose 50 mg/kg p.o. once), 98%. For the same molecule, the “Inhibitory Effect against Liver Injuries(%) AST” value in assay [2] (dose 16.7 mg/kg p.o. once) stood at 97%; in assay [2] (dose 50 mg/kg p.o. once), 100%; in assay [3] (dose 16.7 mg/kg p.o. once), 37%; in assay [3] (dose 50 mg/kg p.o. once) it was 98%.

In the case of `COC(=O)c1cc(OC)c2c(c1-c1c(C(=O)OC)cc(OC)c3c1OCO3)OCO2` [DDB, reference compound], the “Inhibitory Effect … (%) ALT” value is listed as 21% in assay [1] (dose 50 mg/kg p.o. once), 22% in assay [2] (dose 50 mg/kg p.o. once) and 21% in assay [3] (dose 50 mg/kg p.o. once). The “Inhibitory Effect against Liver Injuries(%) AST” value is reported as 6% in assay [2] (dose 50 mg/kg p.o. once) and −4% in assay [3] (dose 50 mg/kg p.o. once).

As for `CC(=O)SCC(=O)c1ccc2c(c1)OCO2` [Compound 28, 1-(benzo[3,4-d]1,3-dioxolan-5-yl)-2-acetylthioethan-1-one], the “Inhibitory Effect … (%) ALT” value in assay [1] (dose 16.7 mg/kg p.o. once) is given as 14%; in assay [1] (dose 50 mg/kg p.o. once), 41%; in assay [2] (dose 16.7 mg/kg p.o. once), 93%; in assay [2] (dose 50 mg/kg p.o. once), 100%; in assay [3] (dose 16.7 mg/kg p.o. once), 76%; in assay [3] (dose 50 mg/kg p.o. once) it was 87%. In addition, the “Inhibitory Effect against Liver Injuries(%) AST” value in assay [2] (dose 16.7 mg/kg p.o. once) is listed as 94%; in assay [2] (dose 50 mg/kg p.o. once), 100%; in assay [3] (dose 16.7 mg/kg p.o. once), 89%; in assay [3] (dose 50 mg/kg p.o. once) it was 94%.

For `O/N=C/c1ccc2c(c1)OCO2` [Compound 1], the “Inhibitory Effect … (%) ALT” value is listed as 44% in assay [1] (dose 1.9 mg/kg p.o. once); 43% in assay [1] (dose 5.6 mg/kg p.o. once); 68% in assay [1] (dose 16.7 mg/kg p.o. once); 84% in assay [1] (dose 50 mg/kg p.o. once); 50% in assay [2] (dose 1.9 mg/kg p.o. once); 79% in assay [2] (dose 5.6 mg/kg p.o. once). For the same molecule, the “Inhibitory Effect … (%) ALT” value was 100% in assay [2] (dose 16.7 mg/kg p.o. once), 100% in assay [2] (dose 50 mg/kg p.o. once) and 99% in assay [3] (dose 50 mg/kg p.o. once).
